This experiment concerns S-adenosylmethionine decarboxylase (SAMDC). Nature of the experiment: Polyamine enzyme activity in treated melanoma cells: SAMDC. The class given is cell-based, human. Particulars: 10 μM. On the procedure:
MALME-3M human melanoma cells were cultured as described in Example 1 and treated with 10 μM DENSPM or 10 μM spermine (SPM) as described in Example 4. SK-MEL-28 cells were also cultured as described in Example 1 and treated with 10 μM DENSPM as describe in Example 4. Untreated cells were used as a control.
After treatment with DENSPM or spermine, biochemical parameters including polyamine enzymes activity, polyamine pools and analog accumulation were monitored as described by Kramer et al, J. Biol. Chem., 270:2124-32 (1995) and Kramer et al., Cancer Res., 57:5521-5527 (1997). Polyamine enzyme activity was monitored for ornithine […] (ODC); S-adenosylmethionine decarboxylase (SAMDC); and spermidine/spermine N^1-acetyltransferase (SSAT). Polyamine pools was monitored for putrescine (Put); spermidine (Spd); and spermine (Spm).

Regarding `CCNCCCNCCCNCCCNCC` [DENSPM, N^1,N^11-diethylnorspermine], the SAMDC activity (MALME-3M (wt-p53), Table 2 (24 hours treatment)) stood at 40 pmol/hr/mg protein and the SAMDC activity (SK-MEL-28 (mt-p53), Table 2, 24 hours) was 25 pmol/hr/mg protein.

(Values after patent US6531512B1, “Method of treating cancer in patients having a deficiency in p53 tumor suppressor gene” (Health Research Inc., priority 1998, dated 2003).)
